Data: patent US12187713B2, “Immunomodulators, compositions and methods thereof” (Betta Pharmaceuticals Co., Ltd, priority 2019, dated 2025)

Tests used:
[1] = Pharmacokinetic Assay, single oral dose 5 mg/kg (Table 12); type: in vivo; settings: mouse, plasma concentration, C57 female mice, single oral dose 5 mg/kg
Protocol: Adult C57 female mice were received to single-dose of the test compounds with 15% DMSO, 10% Kolliphor^@HS 15 and 75% saline as excipients, the mice (n=3) were giving oral administration (intragastric administration) with the compounds at a dose of 5 mg/kg. Time of blood collection: 30 min, 2 h, 4 h. approximately 0.1 mL of whole blood was collected from retro-orbital venous plexus, and placed into tubes that contained K2-EDTA as an anticoagulant. The whole blood were centrifuged at 4° C. and 4000 rpm for 10 min. The plasma was transferred into centrifuge tubes, and stored at −20° C. until being analyzed. Concentrations of test compounds in the plasma samples were analyzed with liquid chromatography-tandem mass spectrometry (LC-MS/MS). Plasma concentration-time data of individual animals was analyzed using Microsoft Excel 2010.

[2] = target: PD-1/PD-L1 (Homo sapiens (Human), UniProt Q9NZQ7); assay: PD-1/PD-L1 Binding Assay (Alphascreen)
Summary of the method: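 PD-1/PD-L1 binding detected by anti-6×His acceptor and streptavidin donor beads after 120 min in the dark at 25 °C. Beforehand, the two proteins were incubated 15 min at 25 °C with inhibitor at 0.015–300 nM (1% DMSO). IC50 comes from a log concentration–response curve.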

Sequence of PD-1/PD-L1 (Q9NZQ7 19-238): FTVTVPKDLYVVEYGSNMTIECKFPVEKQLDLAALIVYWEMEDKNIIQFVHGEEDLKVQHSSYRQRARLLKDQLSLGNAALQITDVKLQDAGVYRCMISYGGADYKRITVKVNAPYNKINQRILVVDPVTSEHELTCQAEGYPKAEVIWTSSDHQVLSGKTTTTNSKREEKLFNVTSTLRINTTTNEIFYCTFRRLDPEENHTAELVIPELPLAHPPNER

SMILES	concentration at 0.5 h [1] [ng/mL]	concentration at 2 h [1] [ng/mL]	concentration at 4 h [1] [ng/mL]	IC50 ([2]; range symbols) [nM]	IC50 ([2]; numeric values) [nM]
Cc1c(-c2nc3cc(CN4CCC[C@H]4C(=O)O)c(OC(F)F)cc3o2)cccc1-c1cccc(-c2nc3cc(CN4CC5CC4C5)cc(C(F)(F)F)c3o2)c1C [Example 89]	21.3	124	109	0.1 to 5	–
Cc1c(-c2nc3cc(CN4CCC[C@H]4C(=O)O)c(OC(F)F)cc3o2)cccc1-c1cccc(-c2nc3cc(CN4CCCC4)c(C(F)(F)F)cc3o2)c1C [Example 101, ((6-(difluoromethoxy)-2-(2,2′-dimethyl-3′-(5-(pyrrolidin-1-ylmethyl)-6-(trifluoromethyl)benzo[d]oxazol-2-yl)-[1,1′-biphenyl]-3-yl)benzo[d]oxazol-5-yl)methyl)-L-proline]	178	640	579	–	2.2
Cc1c(-c2nc3cc(CN4CCC[C@H]4C(=O)O)c(OC(F)F)cc3o2)cccc1-c1cccc(-c2nc3cc(CN4CCCC4)c(F)c(F)c3o2)c1C [Example 102, ((2-(3′-(6,7-difluoro-5-(pyrrolidin-1-ylmethyl)benzo[d]oxazol-2-yl)-2,2′-dimethyl-[1,1′-biphenyl]-3-yl)-6-(difluoromethoxy)benzo[d]oxazol-5-yl)methyl)-L-proline]	85.9	282	292	–	18
Cc1c(-c2nc3cc(CN4CCC[C@H]4C(=O)O)c(OC(F)F)cc3o2)cccc1-c1cccc(-c2nc3cc(CN4CC[C@@H](C)C4)cnc3o2)c1C [Example 114, ((6-(difluoromethoxy)-2-(2,2′-dimethyl-3′-(6-(((R)-3-methylpyrrolidin-1-yl)methyl)oxazolo [5,4-b]pyridin-2-yl)-[1,1′-biphenyl]-3-yl)benzo[d]oxazol-5-yl)methyl)-L-proline]	65.6	237	152	–	1
COc1c(-c2nc3cc(CN4CCCC4)c(F)c(F)c3o2)cccc1-c1cccc(-c2nc3cc(CN4CCC[C@H]4C(=O)O)c(OC(F)F)cc3o2)c1C [Example 117, ((2-(3′-(6,7-difluoro-5-(pyrrolidin-1-ylmethyl)benzo[d]oxazol-2-yl)-2′-methoxy-2-methyl-[1,1′-biphenyl]-3-yl)-6-(difluoromethoxy)benzo[d]oxazol-5-yl)methyl)-L-proline]	121	319	243	0.1 to 5	–
Cc1c(-c2nc3cc(CN4CCC[C@H]4C(=O)O)c(OC(F)F)cc3o2)cccc1-c1cccc(-c2nc3cc(CN4CCCC4)cc(C#N)c3o2)c1C [Example 127, ((2-(3′-(7-cyano-5-(pyrrolidin-1-ylmethyl)benzo[d]oxazol-2-yl)-2,2′-dimethyl-[1,1′-biphenyl]-3-yl)-6-(difluoromethoxy)benzo[d]oxazol-5-yl)methyl)-L-proline]	61.3	253	216	–	3.1
Cc1c(-c2nc3cc(CN4CCC[C@H]4C(=O)O)c(OC(F)F)cc3o2)cccc1-c1cccc(-c2nc3cc(CN4CC[C@@H](C)C4)cc(C#N)c3o2)c1C [Example 131, ((2-(3′-(7-cyano-5-(((R)-3-methylpyrrolidin-1-yl)methyl)benzo[d]oxazol-2-yl)-2,2′-dimethyl-[1,1′-biphenyl]-3-yl)-6-(difluoromethoxy)benzo[d]oxazol-5-yl)methyl)-L-proline]	108	301	470	–	2.3
Cc1c(-c2nc3cc(CN4CCC[C@H]4C(=O)O)c(OC(F)F)cc3o2)cccc1-c1cccc(-c2nc3cc(CN(C)CC#N)cc(C#N)c3o2)c1C [Example 136, ((2-(3′-(7-cyano-5-(((cyanomethyl) (methyl)amino)methyl)benzo [d]oxazol-2-yl)-2,2′-dimethyl-[1,1′-biphenyl]-3-yl)-6-(difluoromethoxy)benzo[d]oxazol-5-yl)methyl)-L-proline]	673	736	545	0.1 to 5	–
Cc1c(-c2nc3cc(CN4CCC[C@H]4C(=O)O)c(OC(F)F)cc3o2)cccc1-c1cccc(-c2nc3cc(CN4CCC(C#N)C4)cc(C#N)c3o2)c1C (stereo partly drawn) [Example 142, ((2-(3′-(7-cyano-5-((3-cyanopyrrolidin-1-yl)methyl)benzo[d]oxazol-2-yl)-2,2′-dimethyl-[1,1′-biphenyl]-3-yl)-6-(difluoromethoxy)benzo[d]oxazol-5-yl)methyl)-L-proline]	211	243	171	0.1 to 5	–
C#CC1(O)CN(Cc2cc(C#N)c3oc(-c4cccc(-c5cccc(-c6nc7cc(CN8CCC[C@H]8C(=O)O)c(OC(F)F)cc7o6)c5C)c4C)nc3c2)C1 [Example 144, ((2-(3′-(7-cyano-5-((3-ethynyl-3-hydroxyazetidin-1-yl)methyl)benzo[d]oxazol-2-yl)-2,2′-dimethyl-[1,1′-biphenyl]-3-yl)-6-(difluoromethoxy)benzo[d]oxazol-5-yl)methyl)-L-proline]	243	386	222	0.1 to 5	–
Cc1c(-c2nc3cc(CN4CCC[C@H]4C(=O)O)c(OC(F)F)cc3o2)cccc1-c1cccc(-c2nc3cc(CN4CCC(F)C4)cc(C#N)c3o2)c1C (stereo partly drawn) [Example 162, ((2-(3′-(7-cyano-5-((3-fluoropyrrolidin-1-yl)methyl)benzo[d]oxazol-2-yl)-2,2′-dimethyl-[1,1′-biphenyl]-3-yl)-6-(difluoromethoxy)benzo[d]oxazol-5-yl)methyl)-L-proline]	277	670	441	5 to 50	–
Cc1c(-c2nc3cc(CN4CCC[C@H]4C(=O)O)c(OC(F)F)cc3o2)cccc1-c1cccc(-c2nc3cc(CN4CC(F)C(F)C4)cc(C#N)c3o2)c1C (stereo partly drawn) [Example 164, ((2-(3′-(7-cyano-5-((3,4-difluoropyrrolidin-1-yl)methyl)benzo [d]oxazol-2-yl)-2,2′-dimethyl-[1,1′-biphenyl]-3-yl)-6-(difluoromethoxy)benzo[d]oxazol-5-yl)methyl)-L-proline]	294	877	853	5 to 50	–
Cc1c(-c2nc3cc(CN4CCC[C@H]4C(=O)O)c(OC(F)F)cc3o2)cccc1-c1cccc(-c2nc3cc(CN4CC[C@@H](C#N)C4)cc(C#N)c3o2)c1C [Example 165, ((2-(3′-(7-cyano-5-(((R)-3-cyanopyrrolidin-1-yl)methyl)benzo[d]oxazol-2-yl)-2,2′-dimethyl-[1,1′-biphenyl]-3-yl)-6-(difluoromethoxy)benzo[d]oxazol-5-yl)methyl)-L-proline]	376	404	219	0.1 to 5	–
Cc1c(-c2nc3c(o2)CCN(CCCC(F)(F)F)C3)cccc1-c1cccc(-c2nc3cc(CN4CCC[C@H]4C(=O)O)c(OC(F)F)cc3o2)c1C [Example 191, ((6-(difluoromethoxy)-2-(2,2′-dimethyl-3′-(5-(4,4,4-trifluorobutyl)-4,5,6,7-tetrahydrooxazolo[4,5-c]pyridin-2-yl)-[1,1′-biphenyl]-3-yl)benzo[d]oxazol-5-yl)methyl)proline]	520	1170	1330	5 to 50	–
Cc1c(-c2nc3c(o2)CCN(CC2CCO2)C3)cccc1-c1cccc(-c2nc3cc(CN4CCC[C@H]4C(=O)O)c(OC(F)F)cc3o2)c1C (some centres unmarked) [Example 192, ((6-(difluoromethoxy)-2-(2,2′-dimethyl-3′-(5-(oxetan-2-ylmethyl)-4,5,6,7-tetrahydrooxazolo[4,5-c]pyridin-2-yl)-[1,1′-biphenyl]-3-yl)benzo[d]oxazol-5-yl)methyl)proline]	469	440	268	5 to 50	–
Cc1c(-c2nc3c(o2)CCN(CC#N)C3)cccc1-c1cccc(-c2nc3cc(CN4CCC[C@H]4C(=O)O)c(OC(F)F)cc3o2)c1C [Example 195, ((2-(3′-(5-(cyanomethyl)-4,5,6,7-tetrahydrooxazolo[4,5-c]pyridin-2-yl)-2,2′-dimethyl-[1,1′-biphenyl]-3-yl)-6-(difluoromethoxy)benzo[d]oxazol-5-yl)methyl)proline]	256	255	125	5 to 50	–
CCS(=O)(=O)N1CCc2oc(-c3cccc(-c4cccc(-c5nc6cc(CN7CCC[C@H]7C(=O)O)c(OC(F)F)cc6o5)c4C)c3C)nc2C1 [Example 197, ((6-(difluoromethoxy)-2-(3′-(5-(ethylsulfonyl)-4,5,6,7-tetrahydrooxazolo[4,5-c]pyridin-2-yl)-2,2′-dimethyl-[1,1′-biphenyl]-3-yl)benzo[d]oxazol-5-yl)methyl)proline]	527	741	369	5 to 50	–
